Measured values from PMC4390552 (Chemical biology & drug design, 2014).

Assays:
Assay type in all cases: cell-based, human
[1] = test system: HPASMC; assay: MTT cell viability assay; settings: 100 μM CPP (H2O2 0.5 mM), 30-min incubation, OD 570 nm, quadruplicate
[2] = test system: ERK phosphorylation in HPASMC; assay: Growth factor-stimulated ERK phosphorylation in HPASMC; settings: for ERK activation in HPASMC by growth factor: 10 ng/mL PDGF or VEGF in serum-free medium, Western blot, three experiments
[3] = test system: Akt phosphorylation in HPASMC; assay: Growth factor-stimulated Akt phosphorylation in HPASMC; settings: for Akt activation in HPASMC by growth factor: 10 ng/mL PDGF or VEGF in serum-free medium, Western blot, three experiments
[4] = test system: ERK phosphorylation in HPAEC; assay: Growth factor-stimulated ERK phosphorylation in HPAEC; settings: for ERK activation in HPAEC by growth factor: 10 ng/mL PDGF or VEGF in serum-free medium, Western blot, three experiments
[5] = test system: Akt phosphorylation in HPAEC; assay: Growth factor-stimulated Akt phosphorylation in HPAEC; settings: 10 ng/mL PDGF or VEGF in serum-free medium; Western blot, three experiments

Compound	Effect on cell viability (MTT) [1]	ERK phosphorylation in HPASMC by EGF ([2]; 1 ng/mL EGF)	Akt phosphorylation in HPASMC by EGF ([3]; 1 ng/mL EGF)	ERK activation in HPASMC by growth factor [2]	Akt activation in HPASMC by growth factor [3]	ERK activation in HPAEC by growth factor [4]	Concentration at which the dose response of ERK activation maximized ([4]; HPAEC, increasing VEGF in serum-free medium)	Akt activation in HPAEC by growth factor [5]	Concentration at which the dose response of ERK activation maximized ([2]; HPASMC, increasing PDGF in serum-free medium)
OO [Hydrogen peroxide]	statistically significant toxicity	–	–	–	–	–	–	–	–
EGF: epidermal growth factor (NSDSECPLSHDGYCLHDGVCMYIEALDKYACNCVVGYIGERCQYRDLKWWELR; UniProt P01133 971-1023, looked up)	–	induced the phosphorylation of both ERK and Akt	induced the phosphorylation of both ERK and Akt	–	–	–	–	–	–
VEGF	–	–	–	no activity	no activity	strong ERK phosphorylation	1 ng/mL	failed to activate Akt	–
PDGF	–	–	–	activated	activated	inactive	–	failed to activate Akt	1 ng/mL
